Test [1] concerns Rhodococcus ruber SC1. The experiment in a line: Growth of Rhodococcus ruber SC1 on cyclic ketones as sole carbon and energy source. Type of test: cell-based. Particulars: for Growth of Rhodococcus ruber SC1: cyclic ketone as sole carbon and energy source. How it is done: Synthetic S12 medium was used to establish enrichment. S12 medium contains the following: 10 mM ammonium sulfate, 50 mM potassium phosphate buffer (pH 7.0), 2 mM MgCl2, 0.7 mM CaCl2, 50 μM MnCl2, 1 μM FeCl3, 1 μM […], 1.72 μM CuSO4, 2.53 μM CoCl2, 2.42 μM […], and 0.0001% FeSO4. The carbon sources were added directly to the S12 medium and the bacteria were grown in sealed culture flasks.
S12 agar was used to test isolates that utilize compounds as the sole source of carbon and energy. S12 agar was prepared by adding 1.5% Noble agar (DIFCO) to S12 medium. Bacteria growing on S12 agar were supplied with volatile compounds such as cyclododecanone by sprinkling solids of the volatile compound on the interior of the petri dish lid or 5 μl of other volatile liquid as vapor. The petri dish was sealed with parafilm and incubated with the lid on the bottom.
Rhodococcus ruber SC1 isolated from cyclododecanone (C12 cyclic ketone) enrichment culture was also tested for growth on cyclic ketones of different carbon numbers as sole carbon and energy source (Table 3). It grows well on cyclopentadecanone (C15 cyclic ketone), cyclotridecanone (C13 cyclic ketone), cyclododecanone (C12 cyclic ketone) and cycloundecanone (C11 cyclic ketone).

For test [2], the system named is monooxygenase and esterase on the S8C. The experiment in a line: Production of different chain length hydroxy acids from cyclic ketones by recombinant E. coli cosmid clone S8C (GC/MS). Particulars: cyclic ketone substrate 250 mg/L. The test is classed as cell-based, Escherichia coli. How it is done: Transformed XL1-Blue MR cells were grown in M9 medium with 0.4% glucose as sole carbon source. Substrate for conversion was added at early log phase (OD=0.2) and cells were allowed to grow at 30° C. for 20 additional hours. Cells were then frozen and thawed once, centrifuged, and supernatant was filtered through 0.2 μm filters. Filtrate was prepared for GC/MS analysis as described below.
Filtrate was first acidified to pH 2 using concentrated HCl. The acidified sample was extracted twice with methylene chloride or ethyl acetate. The extracts were combined and dried by adding anhydrous magnesium sulfate. Magnesium sulfate was then removed by filteration using Whatman 3MM filter paper and the remaining solvent in the filtrate was evaporated under a gentle stream of nitrogen. The dried residues were resuspended in 0.5 mL of methylene chloride as underivatized samples or derivatized with 0.5 mL of BSTFA [bis (trimethylsilyl) trifluoroacetamide] silylation reagent (SUPELCO, Bellefonte, Pa.). The GC/MS analysis was performed using a Hewlett Packard 5989B MS Engine GC/MS instrument. Samples were injected onto a 30 meter MDN-5S capillary column (SUPELCO, 0.5 μm film thickness) for separation. GC/MS analysis was conducted using electron impact ionization (70 eV).
Example 8 explores whether the cyclic substrates could be expanded to cyclic ketones of different chain length and whether corresponding hydroxy acids could be produced. S8C was grown as described above except that different cyclic ketones were added. Cyclohexanone (C6), cycloheptanone (C7), cyclooctanone (C8), cyclodecanone (C10), cycloundecanone (C11), cyclododecanone (C12), cyclotridecanone (C13) and cyclopentadecanone (C15) were added as substrates at 250 mg/L concentration. Identification of the corresponding hydroxy acids produced was performed by GC/MS analysis as described above. Large amount of corresponding hydroxy acids were detected from S8C grown in the presence of C11, C12 and C13 cyclic ketones. Medium level of 15-hydroxy acid was detected from C15 cyclic ketone grown cells. Small amount of hydroxy acids was detected from cells grown on C6 and C10 cyclic ketones. […] The substrate range of the monooxygenase and esterase on the S8C appeared to favor long chain cyclic ketones (C>10). This correlated well with the growth substrate range ([…]) of the Rhodococcus ruber SC1. The ability of Rhodococcus ruber SC1 to grow on cyclic ketones of C11-C15 was likely due to the relatively broad substrate specificity of the single set of monooxygenase and esterase encoded on S8C clone (Table 3). It is possible that mixture of the large cyclic ketones may be used as substrates in a biotransformation to produce a mixture of long chain hydroxy acids or diacids for certain applications.

Regarding `O=C1CCCCC1` [C6, cyclohexanone], in test [1], the “Growth of Rhodococcus ruber SC1 on cyclic ketone (in words)” value (“Growth … (in words)” for short) is “does not grow” and the “Growth of Rhodococcus ruber SC1” value is “−”. Besides, in test [2], the “Corresponding Hydroxy Acid Produced by E. coli Cosmids” value (“Corresponding Hydroxy Acid Produced” below) is listed as “+/−” and the “Corresponding hydroxy acid detected (in words)” value is “Small amount”.
Taken in the same sequence, the figures for `O=C1CCCCCC1` [C7, cycloheptanone] were “does not grow”, “−”, “−” and “No hydroxy acid was detected”.
Taken in the same sequence, the figures for `O=C1CCCCCCC1` [C8, cyclooctanone] were “does not grow”, “−”, “−” and “No hydroxy acid was detected”.
Taken in the same sequence, the figures for `O=C1CCCCCCCCC1` [C10, cyclodecanone] were “grows moderately well”, “+”, “+/−” and “Small amount”.
In the case of `O=C1CCCCCCCCCC1` [C11, cycloundecanone], in test [1], the “Growth … (in words)” value is given as “grows well” and the “Growth of Rhodococcus ruber SC1” value is listed as “+”. In addition, in test [2], the “Corresponding Hydroxy Acid Produced” value is recorded as “++” and the “Corresponding hydroxy acid detected (in words)” value is recorded as “Large amount”.
Taken in the same sequence, the figures for `O=C1CCCCCCCCCCC1` [C12, cyclododecanone] were “grows well”, “+”, “++” and “Large amount”.
Taken in the same sequence, the figures for `O=C1CCCCCCCCCCCC1` [C13, cyclotridecanone] were “grows well”, “+”, “++” and “Large amount”.
Regarding `O=C1CCCCCCCCCCCCCC1` [C15, cyclopentadecanone], in test [1], the “Growth … (in words)” value is listed as “grows well” and the “Growth of Rhodococcus ruber SC1” value is recorded as “+”. Also, in test [2], the “Corresponding Hydroxy Acid Produced” value is listed as “+” and the “Corresponding hydroxy acid detected (in words)” value was “Medium level”.
